In this experiment the target is Mast/stem cell growth factor receptor Kit (Homo sapiens, UniProt P10721). Briefly: Inhibition of c-Kit by HTRF method. (Time-resolved FRET reads energy transfer from a long-lived donor to a nearby acceptor.)

The structures appear in SMILES notation.

Chain of Mast/stem cell growth factor receptor Kit (P10721 whole entry): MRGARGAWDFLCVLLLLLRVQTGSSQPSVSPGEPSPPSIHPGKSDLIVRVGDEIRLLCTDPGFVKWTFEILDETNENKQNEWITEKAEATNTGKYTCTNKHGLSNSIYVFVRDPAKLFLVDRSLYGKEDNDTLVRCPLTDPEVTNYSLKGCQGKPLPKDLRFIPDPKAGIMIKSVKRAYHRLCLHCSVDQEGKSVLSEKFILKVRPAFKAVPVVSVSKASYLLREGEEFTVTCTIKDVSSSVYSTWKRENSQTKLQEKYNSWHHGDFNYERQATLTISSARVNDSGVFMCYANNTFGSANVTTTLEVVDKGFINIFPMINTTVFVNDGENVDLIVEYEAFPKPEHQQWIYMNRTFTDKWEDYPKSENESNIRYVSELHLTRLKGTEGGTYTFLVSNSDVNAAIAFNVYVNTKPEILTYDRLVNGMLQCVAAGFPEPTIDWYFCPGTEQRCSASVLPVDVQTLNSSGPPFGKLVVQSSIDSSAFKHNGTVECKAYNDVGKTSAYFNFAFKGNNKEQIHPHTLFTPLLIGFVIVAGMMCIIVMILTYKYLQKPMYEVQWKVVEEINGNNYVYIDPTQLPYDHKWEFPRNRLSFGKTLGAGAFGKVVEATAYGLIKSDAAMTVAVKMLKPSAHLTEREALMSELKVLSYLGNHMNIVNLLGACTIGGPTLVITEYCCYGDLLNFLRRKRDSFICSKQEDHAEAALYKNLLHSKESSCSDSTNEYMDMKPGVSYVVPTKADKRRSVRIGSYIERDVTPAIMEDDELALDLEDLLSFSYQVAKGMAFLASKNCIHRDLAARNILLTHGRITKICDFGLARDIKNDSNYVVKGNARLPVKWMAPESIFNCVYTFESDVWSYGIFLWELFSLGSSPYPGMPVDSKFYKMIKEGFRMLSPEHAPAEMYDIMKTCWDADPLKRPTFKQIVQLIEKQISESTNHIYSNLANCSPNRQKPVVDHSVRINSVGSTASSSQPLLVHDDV

The IC50 is the concentration needed to halve the response being measured. Read a high IC50 as weaker potency. For `Cc1ccccc1NC(=O)Nc1ccc(-c2c(C)sc3ncnc(N)c23)c(Cl)c1`, it took 200 nM to reach half-maximal inhibition (IC50).

The values above are taken from ChEMBL document CHEMBL1153720, “Three dimensional pharmacophore modelling for c-Kit receptor tyrosine kinase inhibitors” (Eur J Med Chem, 2010).
